From ChEMBL document CHEMBL2074472, “In vitro and in vivo reversal of cancer cell multidrug resistance by the semi-synthetic antibiotic tiamulin” (Biochem Pharmacol, 1998)

Experiments:
Format in all cases: functional, cell-based
[1] = target: Multidrug resistance protein 1a (Rattus norvegicus) (UniProt Q6PSM0); assay: TP_TRANSPORTER: increase in Daunomycin intracellular accumulation (Daunomycin: 1.9 uM, Tiamulin: 2 uM) in AS30-D/COL10 cells, flow cytometry
[2] = target: ATP-dependent translocase ABCB1 (Homo sapiens, UniProt P08183); assay: TP_TRANSPORTER: increase in Daunomycin intracellular accumulation (Daunomycin: 1.9 uM, Tiamulin: 2 uM) in CEM/VLB3.6 cells, flow cytometry; details: cem/vlb3.6, 2 µM
[3] = target: ATP-dependent translocase ABCB1 (Mus musculus, UniProt P21447); assay: TP_TRANSPORTER: increase in Daunomycin intracellular accumulation (Daunomycin: 1.9 uM, Tiamulin: 2 uM) in P388/ADR25 cells, flow cytometry; details: p388/adr25, 2 µM
Sequence of ATP-dependent translocase ABCB1 (Mus musculus, UniProt P21447) (P21447 whole entry): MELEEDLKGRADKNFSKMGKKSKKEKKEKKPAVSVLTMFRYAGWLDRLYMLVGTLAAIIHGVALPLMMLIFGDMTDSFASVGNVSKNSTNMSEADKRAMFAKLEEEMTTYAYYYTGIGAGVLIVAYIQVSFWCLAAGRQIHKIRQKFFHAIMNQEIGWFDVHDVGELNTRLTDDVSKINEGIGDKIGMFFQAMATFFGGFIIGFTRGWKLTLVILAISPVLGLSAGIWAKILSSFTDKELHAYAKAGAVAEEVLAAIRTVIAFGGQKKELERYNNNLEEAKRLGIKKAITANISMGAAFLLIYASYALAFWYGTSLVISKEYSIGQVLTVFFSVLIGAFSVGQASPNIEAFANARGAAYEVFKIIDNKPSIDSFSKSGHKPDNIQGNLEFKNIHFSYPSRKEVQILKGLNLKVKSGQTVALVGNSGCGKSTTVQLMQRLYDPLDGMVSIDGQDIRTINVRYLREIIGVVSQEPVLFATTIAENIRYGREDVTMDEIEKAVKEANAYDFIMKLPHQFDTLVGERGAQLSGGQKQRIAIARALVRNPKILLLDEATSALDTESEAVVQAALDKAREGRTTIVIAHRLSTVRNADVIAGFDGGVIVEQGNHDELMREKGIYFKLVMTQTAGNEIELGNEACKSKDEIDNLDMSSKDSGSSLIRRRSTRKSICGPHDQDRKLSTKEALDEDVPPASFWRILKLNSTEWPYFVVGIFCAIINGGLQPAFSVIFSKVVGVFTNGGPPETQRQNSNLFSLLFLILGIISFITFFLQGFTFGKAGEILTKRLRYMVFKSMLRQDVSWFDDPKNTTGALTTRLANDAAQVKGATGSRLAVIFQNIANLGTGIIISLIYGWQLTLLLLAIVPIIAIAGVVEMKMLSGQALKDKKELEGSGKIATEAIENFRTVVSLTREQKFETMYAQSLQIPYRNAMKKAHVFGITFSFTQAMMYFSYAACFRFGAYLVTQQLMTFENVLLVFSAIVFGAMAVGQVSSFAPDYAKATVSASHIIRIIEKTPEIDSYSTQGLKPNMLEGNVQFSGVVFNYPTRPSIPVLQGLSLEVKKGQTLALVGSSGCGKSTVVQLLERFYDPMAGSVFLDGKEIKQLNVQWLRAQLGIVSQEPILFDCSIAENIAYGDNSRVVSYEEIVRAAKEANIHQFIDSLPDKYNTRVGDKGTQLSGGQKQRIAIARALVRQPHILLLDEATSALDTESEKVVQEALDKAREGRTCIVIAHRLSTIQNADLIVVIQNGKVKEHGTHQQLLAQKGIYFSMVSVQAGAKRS

Sequence of ATP-dependent translocase ABCB1 (Homo sapiens, UniProt P08183) (P08183 whole entry): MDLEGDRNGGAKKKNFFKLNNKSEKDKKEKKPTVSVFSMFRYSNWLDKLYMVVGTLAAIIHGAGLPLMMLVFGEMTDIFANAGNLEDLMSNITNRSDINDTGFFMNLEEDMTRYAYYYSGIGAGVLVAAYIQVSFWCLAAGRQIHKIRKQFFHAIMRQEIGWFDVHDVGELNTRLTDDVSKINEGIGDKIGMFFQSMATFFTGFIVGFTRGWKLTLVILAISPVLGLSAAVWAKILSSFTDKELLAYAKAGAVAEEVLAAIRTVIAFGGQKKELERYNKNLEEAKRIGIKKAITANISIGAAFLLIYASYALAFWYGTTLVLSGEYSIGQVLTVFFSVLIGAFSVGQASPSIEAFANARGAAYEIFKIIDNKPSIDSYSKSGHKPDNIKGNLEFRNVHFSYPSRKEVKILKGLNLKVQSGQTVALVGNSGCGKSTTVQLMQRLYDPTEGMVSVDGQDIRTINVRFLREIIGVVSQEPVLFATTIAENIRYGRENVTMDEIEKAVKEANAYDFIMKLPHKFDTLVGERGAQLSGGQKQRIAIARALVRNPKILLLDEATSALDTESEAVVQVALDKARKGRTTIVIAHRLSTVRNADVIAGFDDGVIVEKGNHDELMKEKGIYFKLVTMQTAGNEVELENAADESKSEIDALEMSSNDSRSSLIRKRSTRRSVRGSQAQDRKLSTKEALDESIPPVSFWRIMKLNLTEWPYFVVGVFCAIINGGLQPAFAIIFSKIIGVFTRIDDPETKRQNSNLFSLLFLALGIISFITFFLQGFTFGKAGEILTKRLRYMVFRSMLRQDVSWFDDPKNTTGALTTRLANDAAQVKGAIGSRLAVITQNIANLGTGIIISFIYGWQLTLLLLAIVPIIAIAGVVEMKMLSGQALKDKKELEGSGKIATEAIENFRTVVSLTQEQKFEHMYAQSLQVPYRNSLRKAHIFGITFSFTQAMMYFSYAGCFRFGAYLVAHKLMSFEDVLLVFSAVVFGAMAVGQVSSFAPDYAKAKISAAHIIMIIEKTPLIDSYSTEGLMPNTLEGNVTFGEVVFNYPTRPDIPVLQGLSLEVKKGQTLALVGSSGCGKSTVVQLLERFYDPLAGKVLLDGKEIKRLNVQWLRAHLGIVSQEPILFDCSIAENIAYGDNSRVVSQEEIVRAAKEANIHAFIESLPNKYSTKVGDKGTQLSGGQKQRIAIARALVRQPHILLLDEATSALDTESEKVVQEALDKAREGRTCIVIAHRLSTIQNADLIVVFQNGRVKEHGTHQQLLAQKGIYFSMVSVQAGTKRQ
Sequence of Multidrug resistance protein 1a (Rattus norvegicus) (Q6PSM0 as listed by the source): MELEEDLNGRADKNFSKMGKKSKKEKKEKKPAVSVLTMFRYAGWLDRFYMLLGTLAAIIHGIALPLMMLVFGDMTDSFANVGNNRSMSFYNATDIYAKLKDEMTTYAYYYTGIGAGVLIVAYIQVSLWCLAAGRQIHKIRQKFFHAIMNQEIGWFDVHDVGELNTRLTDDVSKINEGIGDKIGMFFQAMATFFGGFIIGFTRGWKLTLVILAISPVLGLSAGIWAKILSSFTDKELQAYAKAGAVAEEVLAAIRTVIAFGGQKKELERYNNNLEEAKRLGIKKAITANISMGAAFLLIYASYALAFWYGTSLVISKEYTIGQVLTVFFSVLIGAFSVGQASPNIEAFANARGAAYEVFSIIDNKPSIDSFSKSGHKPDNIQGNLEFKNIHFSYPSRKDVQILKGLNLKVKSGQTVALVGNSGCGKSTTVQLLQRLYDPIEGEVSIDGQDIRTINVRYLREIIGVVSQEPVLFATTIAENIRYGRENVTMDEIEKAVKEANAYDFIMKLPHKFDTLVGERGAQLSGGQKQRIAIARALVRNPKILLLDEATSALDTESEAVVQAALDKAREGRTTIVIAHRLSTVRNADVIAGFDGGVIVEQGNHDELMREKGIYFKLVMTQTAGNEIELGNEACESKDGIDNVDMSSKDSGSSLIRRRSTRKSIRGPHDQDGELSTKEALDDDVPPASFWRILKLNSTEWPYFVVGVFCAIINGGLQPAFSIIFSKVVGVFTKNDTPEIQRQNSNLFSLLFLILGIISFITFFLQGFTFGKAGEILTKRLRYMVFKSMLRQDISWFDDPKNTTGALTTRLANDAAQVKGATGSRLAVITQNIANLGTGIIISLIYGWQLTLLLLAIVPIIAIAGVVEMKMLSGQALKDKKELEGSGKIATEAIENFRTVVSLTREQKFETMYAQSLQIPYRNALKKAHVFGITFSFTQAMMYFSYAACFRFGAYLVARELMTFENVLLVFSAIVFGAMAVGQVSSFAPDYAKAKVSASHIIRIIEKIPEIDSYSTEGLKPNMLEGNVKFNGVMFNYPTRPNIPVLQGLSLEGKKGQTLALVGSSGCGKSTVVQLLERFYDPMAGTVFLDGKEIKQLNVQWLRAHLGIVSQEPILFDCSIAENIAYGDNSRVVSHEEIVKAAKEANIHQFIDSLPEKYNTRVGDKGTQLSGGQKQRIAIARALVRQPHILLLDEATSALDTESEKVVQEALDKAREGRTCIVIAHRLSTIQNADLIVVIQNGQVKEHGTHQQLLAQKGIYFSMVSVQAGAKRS

Activity [1]: inhibitor [+] | Activity [2]: inhibitor [+] | Activity [3]: inhibitor [+]
Compound: C=C[C@]1(C)C[C@@H](OC(=O)CSCCN(CC)CC)[C@]2(C)[C@H](C)CC[C@]3(CCC(=O)[C@H]32)[C@@H](C)[C@@H]1O [TIAMULIN]
